Source: publication PMC6988309, “Preclinical efficacy for a novel tyrosine kinase inhibitor, ArQule 531 against acute myeloid leukemia” (Journal of Hematology & Oncology, 2020)
“And” between values parts separate entries of the source, which are not always exact repeats. Equal values may be shown once.

Columns and labels:
[1] = target: FLT3-ITD (Homo sapiens, UniProt P36888, ITD); experiment: Biochemical assay of recombinant kinases, FLT3-ITD; details: recombinant kinase domain, 10 μmol/L ATP
Protocol: Biochemical inhibition of FLT3-WT and FLT3-ITD fusion was measured using recombinant protein constructs of kinase domains (Reaction Biology).

[2] = system: BTK phosphorylation; experiment: Immunoblot of phospho-BTK; type: cell-based, human; details: AML cell lines; MOLM-13 1 µM for 1 hour (Figure S2)
Protocol: Cells were washed in ice-cold PBS then lysed in 1X Cell Lysis Buffer (CST) supplemented with proteinase and phosphatase inhibitors cocktail (Roche). Pierce BCA Protein Assay was used to quantify the protein lysates (Thermo Fisher Scientific, Waltham, MA). For Immunoblotting, 15–25 μg of protein lysate was prepared in 2X or 4X Laemmeli’s sample buffer (Bio-Rad Laboratories, Hercules, CA) and heated for 5 min at 100 °C. Samples were separated on 8% sodium dodecyl sulfate polyacrylamide gel and transferred onto nitrocellulose membrane (Bio-Rad Laboratories, Hercules, CA). The membranes were blocked for 1 h in Blocker BLOTTO Blocking Buffer (Thermo Fisher Scientific, Waltham, MA) or 5% non-fat milk followed by overnight incubation at 4 °C with primary antibody followed by HRP-conjugated secondary antibodies and visualized with chemiluminescent Pierce ECL Substrate (Thermo Fisher Scientific, Waltham, MA) on X-ray films.
Immunoblot analysis for MOLM-13, MV4-11, and OCI-AML3 AML cell lines (representative of 2-3 independent blots). […] Twenty to 25 μg of total protein lysate was loaded per lane.

[3] = system: Ba/F3 FLT3-D835Y; experiment: MTT proliferation assay 72 h, Ba/F3 FLT3-D835Y; type: cell-based, murine; details: Mus musculus, BaF3, read-out: Estimated absolute µM IC50 and 95% CI
Protocol: (§1) For the MOLM-13 resistant and the Ba/F3-FLT3-ITD/TKD cell lines, cells were treated for 72 h and cell viability was evaluated using MTT assay (Roche Diagnostics. Mannheim. Germany) according to the manufacturer’s instructions.

[4] = system: MV4-11; experiment: MTS proliferation assay 72 h, MV4-11; type: cell-based; details: Homo sapiens, MV4-11, read-out: Estimated absolute µM IC50 (95% CI), 4-parameter logistic model
Protocol: (§2) A total of 5000–30,000 cells from the lines above were treated in a 96-well plate for 72 h. CellTiter 96 Aqueous MTS reagent (Promega, Madison, WI) was added to cells followed by a 3-h incubation at 37 °C, 5% CO2. The absorbance was measured at 490 nm using DTX 880 plate reader and the half maximal inhibitory concentration (IC50) was calculated using GraphPad Prism 7 (GraphPad Software, La Jolla, CA) and SAS/STAT software (SAS v9.4 for Windows, SAS Institute, Inc., Cary, NC).

[5] = system: Ba/F3 FLT3-ITD Parental
Protocol: (§3) CellTiter 96 Aqueous MTS reagent (Promega, Madison, WI) was added to cells followed by a 3-h incubation at 37 °C, 5% CO2. The absorbance was measured at 490 nm using DTX 880 plate reader and the half maximal inhibitory concentration (IC50) was calculated using GraphPad Prism 7 (GraphPad Software, La Jolla, CA) and SAS/STAT software (SAS v9.4 for Windows, SAS Institute, Inc., Cary, NC).

[6] = system: MOLM-13; experiment: MTS proliferation assay 72 h, MOLM-13
Protocol: (§4) A total of 5000–30,000 cells from the lines above were treated in a 96-well plate for 72 h. CellTiter 96 Aqueous MTS reagent (Promega, Madison, WI) was added to cells followed by a 3-h incubation at 37 °C, 5% CO2. The absorbance was measured at 490 nm using DTX 880 plate reader and the half maximal inhibitory concentration (IC50) was calculated using GraphPad Prism 7 (GraphPad Software, La Jolla, CA) and SAS/STAT software (SAS v9.4 for Windows, SAS Institute, Inc., Cary, NC). For the MOLM-13 resistant and the Ba/F3-FLT3-ITD/TKD cell lines, cells were treated for 72 h and cell viability was evaluated using MTT assay (Roche Diagnostics. Mannheim. Germany) according to the manufacturer’s instructions.

[7] = system: MOLM-13, MV4-11, and OCI-AML3 cell lines; experiment: Annexin/PI apoptosis assay 72 h; type: cell-based, human; details: increasing concentrations of ARQ 531 or 50 nM gilteritinib
Protocol: Cells were treated for 72 h then stained for 20 min in 1X Annexin Binding buffer (BD Biosciences, Franklin Lakes, NJ) containing Annexin V-FITC and Propidium Iodine (Leinco Technologies, Fenton, MO). Live and apoptotic cells were measured using FC 500 flow cytometer and analyzed on Kaluza software (Beckman Coulter, Pasadena, CA).

[8] = system: Ba/F3 GFP+IL3; experiment: MTT proliferation assay 72 h, Ba/F3 GFP+IL3; type: cell-based, murine
Protocol: as §4

[9] = system: THP-1; experiment: MTS proliferation assay 72 h, THP-1; type: cell-based, human
Protocol: as §4

[10] = system: OCI-AML3; experiment: MTS proliferation assay 72 h, OCI-AML3; type: cell-based; details: Homo sapiens, OCI-AML-3, read-out: Estimated absolute µM IC50 (95% CI), 4-parameter logistic model
Protocol: as §2

[11] = system: MOLM-13 disseminated AML xenograft; experiment: MOLM-13 disseminated xenograft, single agent study (NSG mice); type: in vivo
Protocol: All experiments were conducted after approval of The Ohio State University Institutional Animal Care and Use Committee. Mice were randomized and enrolled for daily oral gavage (Q.D.P.O) treatment of vehicle or 50 mg/kg ARQ 531. Mice were treated until reaching early removal criteria (ERC) defined as 20% weight loss, lethargy, hind limb paralysis, moribund, anorexia, dehydration, hunched posture, severe diarrhea, breathing difficulties, or any abnormal neurological symptoms.
A total of 10,000 luciferase expressing MOLM-13 cells were engrafted via tail vein injection in NSG mice (The Jackson Laboratory, Bar Harbor, ME) for the single agent ARQ 531 study or NCG mice (Charles River Laboratories, Wilmington, MA) for the ARQ 531 + venetoclax (ARQ + Ven) combination study. For the first single agent ARQ 531 study, mice were treated 7 days post-engraftment. Due to the aggressiveness of the MOLM-13 model, mice were treated 4 days post-engraftment in the ARQ + Ven combination study. In both studies, mice were treated daily via oral gavage with vehicle (10% absolute alcohol, 10% Cremophor-EL, 80% saline) or 50 mg/kg ARQ 531, and 75 mg/kg venetoclax ± 50 mg/kg ARQ 531 for the combination study. Weekly in vivo imaging was performed using In Vivo Imaging System (IVIS) imager (PerkinElmer, Waltham, MA).
Kaplan–Meier survival curve in the MOLM-13 disseminated AML xenograft model. […]

[12] = system: primary AML patient blasts; experiment: Colony-Forming Unit-Granulocyte and Macrophage (CFU-GM) assay; type: cell-based, human; details: 3 µM, colonies counted after 14 days
Protocol: Primary AML patient samples were treated and plated at 5000–10,000 cells in 1.1 ml methylcellulose supplemented with recombinant human stem cell factor, interleukin 3, granulocyte colony-stimulating factor, and granulocyte-macrophage colony-stimulating factor (MethoCult™, […] Technologies, Vancouver, Canada) per dish in duplicates. Colonies were counted after 14 days when using primary patient samples.
MTS proliferation assay using a human stroma co-culture assay. […] FLT3 wild-type (WT) samples (red) and FLT3-ITD (black). Colony-Forming Unit-Granulocyte and Macrophage (CFU-GM) assay. […] Number of colonies were counted after 14 days (c)

[13] = system: Ba/F3 FLT3-ITD/D835H; experiment: MTT proliferation assay 72 h, Ba/F3 FLT3-ITD/D835H; type: cell-based, murine; details: Mus musculus, BaF3, read-out: Estimated absolute µM IC50 and 95% CI
Protocol: as §1

[14] = system: Ba/F3 FLT3-ITD/D835Y; experiment: MTT proliferation assay 72 h, Ba/F3 FLT3-ITD/D835Y; type: cell-based, murine; details: Mus musculus, BaF3, read-out: Estimated absolute µM IC50 and 95% CI
Protocol: as §1

[15] = parameters: method as in PMID 30093506; details: cynomolgus monkeys, cited from earlier work
[16] = system: Ba/F3 FLT3-ITD pMIT SYK-TEL
Protocol: as §3

[17] = parameters: method as in doi:10.1182/blood-2018-99-116338; details: dose escalation study; cited from earlier work
[18] = system: U937; experiment: MTS proliferation assay 72 h, U937; type: cell-based, human
Protocol: as §4

Sequence of FLT3-ITD (P36888 564-993, stated change not applied): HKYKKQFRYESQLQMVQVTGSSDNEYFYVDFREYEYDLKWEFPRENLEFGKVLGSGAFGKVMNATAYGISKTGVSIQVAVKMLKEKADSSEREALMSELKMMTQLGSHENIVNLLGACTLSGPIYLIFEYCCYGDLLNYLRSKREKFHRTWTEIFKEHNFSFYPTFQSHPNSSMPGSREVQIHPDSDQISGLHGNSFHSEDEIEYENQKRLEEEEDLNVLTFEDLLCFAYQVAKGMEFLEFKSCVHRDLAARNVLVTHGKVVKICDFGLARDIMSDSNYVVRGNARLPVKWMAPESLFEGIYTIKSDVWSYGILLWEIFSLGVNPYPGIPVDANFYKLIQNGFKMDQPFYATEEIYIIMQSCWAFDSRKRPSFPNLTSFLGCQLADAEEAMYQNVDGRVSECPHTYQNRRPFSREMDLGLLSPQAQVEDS

O=C(c1ccc(Oc2ccccc2)cc1Cl)c1c[nH]c2ncnc(N[C@@H]3CC[C@@H](CO)OC3)c12 [ARQ 531]
IC50 [1]: 0.33 µM | effect on BTK phosphorylation [2]: potently inhibits BTK | IC50 [3]: 6.11 µM | IC50 [4]: 1.45 µM | IC50 [5]: 2.71 µM and 2.53 µM | IC50 ([6]; Homo sapiens, MOLM-13, 72 h, read-out: Estimated absolute µM IC50 (95% CI)): 0.69 µM | in vitro anti-proliferative activity ([6]; MOLM-13, 1 µM, 72 hours MTS (ibrutinib 1 hour washout)): demonstrated in vitro anti-proliferative activity | apoptosis / cytotoxicity (Annexin/PI) [7]: induced cell apoptosis | Estimated absolute µM IC50 and 95% CI [8]: Unable to calculate IC50 | resistant to concentrations up to [9]: > 10 µM | Estimated absolute µM IC50 (95% CI) ([9]; 4-parameter logistic model): Unable to calculate IC50 | IC50 [10]: 1.51 µM | median survival ([11]; 50 mg/kg Q.D.P.O from 7 days post-engraftment until ERC, vehicle 21 days): 23 days | median survival advantage vs vehicle ([11]; 50 mg/kg Q.D.P.O, log-rank p value = 0.002): 2 days | Estimated ratio of colony formation vs. DMSO [12]: 0.45 | IC50 [13]: 3.76 µM | IC50 [14]: 7.55 µM | plasma half-life (t1/2) ([15]; not calculated due to absence of elimination phase): long plasma half-life | Tmax ([15]; single 10 mg/kg oral dose): ≤ 6 h | oral bioavailability ([15]; single 10 mg/kg oral dose): 72% | share of peak concentration present at 24 h ([15]; single 10 mg/kg oral dose): 75% | Cmax ([15]; single 10 mg/kg oral dose, read-out: maximum concentration (Cmax)): 9 µM | IC50 [16]: 11 µM and 5.94 µM and 6.61 µM | treatment emergent adverse events [17]: no reported treatment emergent adverse events | resistant to concentrations up to [18]: > 10 µM | Estimated absolute µM IC50 (95% CI) ([18]; 4-parameter logistic model): Unable to calculate IC50
